Values quoted from earlier work as cited in patent US10058529B2, “Nutraceutical composition for PDE4 inhibition, enhanced dopamine metabolism and long term potentiation” (priority 2013, dated 2018).
One block for each compound: values may come before it.

Tests used:
PDE4 = conditions: reference 38
[1] = low doses
[2] = system: phosphodiesterase enzymes (PDE 1 through 5)
acetylcholine = conditions: in vivo
[3] = co-administered piperine

Structure (SMILES): COc1ccc([C@@]23C=CC(=O)C[C@@H]2N(C)CC3)cc1OC [mesembrenone]
- PDE4 inhibition (PDE4): significantly inhibit

Structure (SMILES): COc1ccc(C2CNC(=O)C2)cc1OC1CCCC1 (centres unmarked) [rolipram]
- side effect [1]: emesis (vomiting) at low doses

- inhibition of phosphodiesterase enzymes (PDE 1 through 5) [2]: can inhibit
Structure (SMILES): O=c1cc(-c2ccc(O)c(O)c2)oc2cc(O)cc(O)c12 [Luteolin, luteolin]

Structure (SMILES): CC(=O)O[C@H](CC(=O)[O-])C[N+](C)(C)C [Acetyl-L-carnitine, acetyl-L-carnitine]
- levels of acetylcholine in the brain (acetylcholine): increase

- bioavailability of resveratrol [3]: enhance the bioavailability
Structure (SMILES): O=C(/C=C/C=C/c1ccc2c(c1)OCO2)N1CCCCC1 [Piperine, piperine]
